Experimental data from US20120301866A1, “LIQUID FORMULATION HAVING DISSOLVED GASES USEFUL FOR PRESERVING BIOLOGICAL MATERIAL” (L'Air Liquide, Société Anonyme pour I'Etude et …, priority 2010, published 2012).
“Also recorded” adds a separate entry of the source.

Assays:
Format in all cases: in vivo
rat kidneys [1] = assay: Immunohistochemistry of transplanted rat kidneys (anti-active caspase-3, anti-CD10); details: day 14 after transplantation; for active caspase-3 expression (immunohistochemistry): marker for apoptosis
Experimental: In order to evaluate the renal graft preservation properties of argon or other gases, rat kidneys were removed and stored in a gas-saturated liquid solution according to the present invention. After six hours of organ preservation at a temperature of 4° C. and at atmospheric pressure, the rat kidneys are transplanted and the survival time, renal function and reperfusion/ischemia injuries are studied by means of biochemical and histological analyses. Immunodetections were carried out on serial cryostat sections 5 μm thick, using certain specific antibodies, i.e. anti-active caspase-3 and anti-CD10. The kidneys of a normal rat are used as control. After having been rinsed, the sections are incubated for 30 minutes with biotinylated secondary antibodies and they are then visualized using avidin-biotin peroxidase.

rat kidneys [2] = assay: Rat kidney transplantation after cold storage in gas-saturated Celsior solution: renal function (creatinine clearance, urinary albumin); details: for overall effect on the preservation of a renal graft: compared with the other experimental groups; for level of albumin in the urine (urinary albumin): kidney stored 6 h at 4 °C, atmospheric pressure, in gas-saturated Celsior, days 7 and 14 after transplantation
Experimental: In accordance with the present invention, argon gas was dissolved in a liquid organ preservation solution available on the market, i.e. the CELSIOR solution, the composition of which is given in table 1, in order to obtain a liquid formulation in accordance with the present invention.
For the purposes of comparison, other gases, i.e. xenon, air and nitrogen, were dissolved in the same type of liquid solution.
(§1) In order to evaluate the renal graft preservation properties of argon or other gases, rat kidneys were removed and stored in a gas-saturated liquid solution according to the present invention.
(§2) After six hours of organ preservation at a temperature of 4° C. and at atmospheric pressure, the rat kidneys are transplanted and the survival time, renal function and reperfusion/ischemia injuries are studied by means of biochemical and histological analyses.
On days 0 (pretransplantation), 7 and 14 (after transplantation), biochemical analyses, i.e. creatinine clearance and urinary albumin, are carried out in the manner described by M. Yin et al., in “Carolina rinse solution minimizes kidney injury and improves graft function and survival after prolonged cold ischemia.” Transplantation 2002; 73:1410-1420).
Creatinine clearance is a parameter that is used to evaluate renal function. A high clearance corresponds to good renal function, while the presence of albumin in the urine (urinary albumin) indicates renal damage since, normally, there is no albumin in the urine when the kidney is normal.

rat kidneys [3] = assay: Histology of transplanted rat kidneys (hematoxylin-eosin-safran, optical microscopy); details: day 14 after transplantation; kidney stored 6 h at 4 °C in gas-saturated solution
Experimental: as §1, §2
On day 14 after transplantation, the kidneys are removed, weighed and cut into blocks. The kidneys are then fixed with a buffered 4% formaldehyde infusion for 24 h and they are embedded in paraffin. Five-micrometer sections are obtained from the blocks and stained with hematoxylin-eosin-safran in order to examine them by optical microscopy.

[Ar] [argon]
active caspase-3 expression (immunohistochemistry) (rat kidneys [1]): discrete and focal losses
CD10 expression (immunohistochemistry) (rat kidneys [1]; weak CD10 expression corresponds to a damaged kidney): discrete and focal losses of CD 10 expression
overall effect on the preservation of a renal graft (rat kidneys [2]): very positive and advantageous effects
level of albumin in the urine (urinary albumin) (rat kidneys [2]): much lower than the levels of albumin (urinary albumin) obtained with the other transplanted kidneys
histological observations of transverse kidney sections (rat kidneys [3]): the architectural integrity of the kidney is preserved without any obvious glomerular modification; also recorded: intact normal morphology as in the control group, with no modification nor any necrosis

N#N [nitrogen, reference compound]
active caspase-3 expression (immunohistochemistry) (rat kidneys [1]): significant expression of active caspase-3

[Xe] [xenon, reference compound]
active caspase-3 expression (immunohistochemistry) (rat kidneys [1]): the active caspase-3 expression has been lost because of the serious acute tubular necrosis
overall effect on the preservation of a renal graft (rat kidneys [2]): some good effects
level of albumin in the urine (urinary albumin) (rat kidneys [2]): an effect greater than that which was obtained with the controls, but which is less than that obtained with argon
